Results: US20030077653A1, “Method for the identification of active site protease inactivators” (The University of Georgia Research Foundation, Inc., priority 2000, published 2003)
Like-named read-outs stand apart in the source and are kept apart here. Starred links: 1 amine or outer side, 2 acyl side, 3 side chain; linkers in the order of their positions; H or OH if unused. Residues, ends and D or L forms follow the SMILES beside them. *: point of attachment. AFC = O=c1cc(C(F)(F)F)c2ccc(N*)cc2o1; Suc = O=C(CCC(=O)[*:2])[*:1]; Cbz = O=C(OCc1ccccc1)*

How the values were obtained:
[1] = tested on: T solium purified cysteine protease; test: Human IgG degradation assay (western blot; Step IV); format: biochemical, Taenia solium; settings: 18 hrs, 37° C.
Protocol: FIG.6. IgG degradation of heavy chain by purified cysteine protease of Taenia solium. human IgG was incubated for 18 hours with T. solium purified cysteine protease (CP). Incubated tubes were subsequently fractionated by SDS-PAGE under reducing conditions, blotted onto PVDF membrane, and visualized using biotinylated anti-IgG (heavy chain/light chain), biotin-peroxidase conjugated-strepavidin complex and enhanced chemiluminescence. Bands represent heavy chains.
To conduct this assessment, a western blot was performed. IgG digestion was detected by incubating 20 μl of T solium purified enzyme or T solium extract with 1 μg of human IgG (Sigma, St. Louis) in a fmal volume of 100 μl of assay buffer. Exogenous thiol activation was assessed by incubating the assay in the presence or absence of cysteine. The catalytic class of the IgG protease was determined by pre-incubating the following proteinase inhibitors at their active concentrations, with the enzyme: E 64 (10^−6 M, cysteine proteinases), phenylmethylsulfonyl fluoride (PMSF) (10^−3 M, serine proteinases), pepstatin A (10^−6 M, aspartic proteinases), and 1,10 phenanthroline (10^−3 M, metalloproteinases), and the vehicle, Mu-Leu-Tyr-AFC (10^−3 M). After addition of IgG, the assay was incubated overnight (37° C., 18 hrs). […]

[2] = tested on: purified Taenia solium cysteine protease; test: Screen of AFC-linked synthetic substrates for cleavage (Step II); format: biochemical; settings: pH 4.9, 18 h, 37° C
Protocol: In this step, the most efficacious substrate for detection of the cysteine protease (high Kcat substrate) was determined in vitro along with those substrates which were not well cleaved (low kcat substrates). From this point forth, the following conditions refer to all assays: “assay buffer” refers to 0.4 M Citrate, pH 4.9 (the pH optima of the protease). Incubation time was 18 hours at 37° C. These conditions were determined by our preliminary data to be best for kinetic evaluation of the protease. […] The experiments were conducted in […] Borosilicate mini-culture tubes (Fisher Scientific), and a fluorometer (Turner) was employed for detection of AFC cleavage.
Approximately 1 ug (or a proteolytically detectable amount) of the purified target cysteine protease was incubated individually, with 1 μg of each of the available substrates in 500 μL of assay buffer. During this setup, the substrate was pre-incubated in the assay buffer for a short period of time (20 minutes) in order to reach an equilibrated status before the addition of the protease. Cleavage assessments were based upon the property of the protease to cleave synthetic peptide substrates linked at the C-terminus to 7-Amino-4-Trifluoromethyl Coumarin (AFC) as previously described. AFC linked tripeptides, dipeptides, and monopeptides, (with a variety of permutations at P3-P1) were available from Enzyme Systems Products (Livermore, CA), and were used as the source of the subset. Following incubation of enzyme preparations overnight (18 h, 37 ° C.) with peptide in assay buffer (Citrate, pH 4.9, supplemented with 0.01 M cysteine), free AFC concentrations were measured fluorometrically (excitation […]). The proteolytic cleavage released the AFC group, which was measurable as a free molecule by a standard fluorometer and converted into molar quantities, based upon a previously established standard curve. The simplicity of AFC detection by the fluorometer was a key factor which quickened and simplified the procedures.
In the assay, 1 ug of the purified Taenia cysteine protease was added to a saturating amount of Z-Phe-Arg-AFC (4×10^−5 M) in assay buffer. The experiment was conducted in triplicate and repeated at least 5 times until we were certain that variability in AFC cleavage was not statistically significant.
Vmax was calculated for the cleavage of substrates by the purified target protease and Vmax was calculated for substrates cleaved by the crude mix protease using conventional kinetic modeling calculations already described in the art.

Trypsin = test: Differential cleavage (selectivity) test; format: biochemical, human; settings: vehicle 4×10^−5 M; pH 8.0, Z-R-AFC
Protocol: (§1) In order to perform the assay, the vehicle (for Step VI) or inhibitor (for Step IX) were incubated with the appropriate substrate in the correct assay buffer and allowed to equilibrate. Subsequently, the protease was added, and the assay was allowed to incubate for an appropriate time. The concentrations used in this experiment were as follows: Vehicle was set up at 4×10^−5 M in final assay buffer; Inhibitor was set up at 3×10^−10 M in the final assay buffer. Accordingly, the dosages employed should be the minimal amount of vehicle or inhibitor necessary to induce inhibition. […] Substrates were set up based upon the preferred substrate for cleavage of the particular enzyme.
(§2) Positive controls were set up similarly as described for test controls, except that solvent was added in substitution for the inhibitor or vehicle (in a volume equal to the volume of inhibitor or vehicle addition). All of the inhibitors and vehicles could be dissolved in dimethylsulfoxide (DMSO), and therefore, this was the solvent of choice. Negative controls were set up by adding the inhibitor or vehicle and the preferred substrates in a tube without the protease. All potential non-proteolytic liberation of AFC was therefore controlled for in this tube (a feature which also insured stability of the AFC substrates, since these substrates will freely liberate AFC when unstable).
(§3) All controls were set up in triplicate, and experiments were repeated a minimum of five times.
(§4) Percent inhibition was calculated as: [formula]
(§5) In this preliminary test, we employed the following human-derived enzymes (with indicated mechanistic class): Cathepsin B (cysteine), Cathepsin L (cysteine), Cathepsin H (cysteine), Cathepsin D (aspartic) Trypsin (serine), the purified Taenia solium cysteine protease, and the Taenia solium crude mix. Cathepsin B was prepared in an assay buffer of 10 mM L-cysteine in 0.4 M Citrate buffer, pH 6. 1, using Z-ARR-AFC as the cleavage substrate. Cathepsin L was prepared in an assay buffer of 10 mM L-cysteine in 0.4 M Citrate buffer, pH 5.5, using Z-FR-AFC as the cleavage substrate. Cathepsin H was prepared in an assay buffer of 10 mM L-cysteine in 0.15 M PBS buffer, pH 6.8, using L- R-AFC as the cleavage substrate. Cathepsin D was prepared in an assay buffer of 0.15 M PBS, pH 7.1, using Z-RGFFP-AFC as the cleavage substrate. Trypsin was prepared in an assay buffer of 0.15 M PBS, pH 8.0, supplemented with 100 mM CaCl2 and with Z-R-AFC as the cleavage substrate. Enzyme was incubated so that it was at least 50 times less than the concentration of substrate in order to insure saturating conditions.

Cathepsin D = Cathepsin D (Homo sapiens, UniProt P07339); test: Differential cleavage (selectivity) test; format: biochemical; settings: vehicle 4×10^−5 M; pH 7.1, Z-RGFFP-AFC
Protocol: as §1, §2, §3, §4, §5

Cathepsin B = Cathepsin B (Homo sapiens, UniProt P07858); test: Differential cleavage (selectivity) test; format: biochemical; settings: vehicle 4×10^−5 M; pH 6.1, Z-ARR-AFC
Protocol: as §1, §2, §3, §4, §5

Cathepsin H = biological target: T1, Cathepsin H (Homo sapiens, UniProt P09668); test: Differential cleavage (selectivity) test; format: biochemical; settings: vehicle 4×10^−5 M; pH 6.8, L-R-AFC
T1 sequence (P09668 98-335): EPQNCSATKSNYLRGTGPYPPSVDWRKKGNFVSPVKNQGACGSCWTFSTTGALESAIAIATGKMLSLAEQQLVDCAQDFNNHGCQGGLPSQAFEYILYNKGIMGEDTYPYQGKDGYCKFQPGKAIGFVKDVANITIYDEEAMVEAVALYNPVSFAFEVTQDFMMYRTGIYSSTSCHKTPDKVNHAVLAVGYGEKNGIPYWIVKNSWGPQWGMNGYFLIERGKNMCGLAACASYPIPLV
Protocol: as §1, §2, §3, §4, §5

Cathepsin L = Cathepsin L (Homo sapiens, UniProt P07711); test: Differential cleavage (selectivity) test; format: biochemical; settings: vehicle 4×10^−5 M; pH 5.5, Z-FR-AFC
Protocol: as §1, §2, §3, §4, §5

Taenia crassiceps cysts [3] = test: Short-term prophylactic protection of BALB/c mice from cysticercosis infection; format: in vivo; settings: pre-injected two days, 10 T. crassiceps cysts/mouse, dosed daily four weeks, intraperitoneal; vs untreated controls
Protocol: FIG. 8. […] Each treated mouse was pre-injected intraperitoneally with inhibitor for two days. During treatment phase, each treated mouse received 1.48×10^−2 μg/μl of N2 daily for three weeks and every other day during the last week. Injections were carried out in 150 μl of dimethyl sulfoxide for each mouse. Both treated groups and positive controls were challenged intraperitoneally with 10 Taenia crassiceps cysts in 200 μl 0.15M PBS at the time of initial infection. After one month of infection, both groups were euthanized and cysts removed by washing with sterile 0.15M PBS. A minimum of two attached cysts were scored as multilobed (ML). […] (B) Graphically represents the effect of protease inhibitor treatment of BALB/c mice challenged with Taenia crassiceps cysts over a long-term period. Mice were divided into treated and untreated groups (5 mice/group).Each mouse in the treated group was pre-injected intraperitoneally with inhibitor for two days. […] Cysts were then counted by visual inspection. […]
Based upon the premise that the cyst wall cysteine protease may serve a critical finction to the life cycle of the Taenia cyst, we tested our most efficacious inhibitors, LLL-FMK and LLY-FMK (K-Pyr was used as a control), for their abilities to protect mice from cysticercosis infection. […] After one month, the mice were euthanized and the cysts counted. […]

Taenia crassiceps cysts [4] = test: Scanning electron microscopy of surfaces of cysts removed from treated mice; format: in vivo
Source text: FIG. 9. Scanning electron microscopy of the surface of cysts removed from untreated mice versus cysts removed from treated mice. Magnifications are identical for both slides in each panel. panel A (4000×). […] No immune cells were seen on cysts removed from untreated mice. Panel B (25,000×). […] Microtriches in untreated cysts can be seen to be visibly longer. Visible anchors were also noted for the untreated cysts group, whereas these anchors were not observed in microtriches from treated cysts.
For example, we hypothesized that the cysteine protease was a key parasitic molecule to allow the cyst to evade the host immune response, by cleaving host antibodies. By inhibiting the Taenia cysteine protease with Z-LLY-FMK, we hypothesized that host immunoglobulin could now bind the parasites, and initiate immunological responses (e.g., complement via IgG2a) which would cause damage to the cyst wall. […] We identified macrophages, neutrophils, fibroblasts, and collagenous deposits on the cyst surfaces from treated mice, in comparison to their absence on cysts from untreated mice. General surface atrophy was also apparent. […] Breaks in the integrity of the cyst surface were also noted for the cysts removed from treated mice. […] Cysts removed from untreated mice were characterized by no immune cells, intact and longer microtriches, and homogeneity of the cyst surface.

Cathepsin L, sequence (P07711 114-333): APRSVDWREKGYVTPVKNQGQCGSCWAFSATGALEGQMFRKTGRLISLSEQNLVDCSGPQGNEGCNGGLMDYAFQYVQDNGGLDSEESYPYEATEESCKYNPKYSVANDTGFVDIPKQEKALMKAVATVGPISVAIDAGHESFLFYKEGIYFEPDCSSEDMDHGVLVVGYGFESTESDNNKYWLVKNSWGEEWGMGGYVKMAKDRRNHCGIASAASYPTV
Cathepsin D, sequence (P07339 65-412): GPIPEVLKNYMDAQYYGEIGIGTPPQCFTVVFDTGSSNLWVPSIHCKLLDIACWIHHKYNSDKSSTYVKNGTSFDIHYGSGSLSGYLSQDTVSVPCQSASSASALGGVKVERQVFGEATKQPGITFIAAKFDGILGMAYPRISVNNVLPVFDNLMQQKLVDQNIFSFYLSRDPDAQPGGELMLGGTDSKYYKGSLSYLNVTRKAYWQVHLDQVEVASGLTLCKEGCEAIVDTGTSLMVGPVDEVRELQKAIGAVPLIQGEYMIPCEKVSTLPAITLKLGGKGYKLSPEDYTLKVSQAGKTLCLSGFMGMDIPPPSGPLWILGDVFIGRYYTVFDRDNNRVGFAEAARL

Compound | inhibition of cleavage of human IgG [1] | cleavage as substrate (Vmax) [2] | Percent inhibition of Trypsin (serine) (Trypsin) [%] | Percent inhibition of Cathepsin D (aspartic) (Cathepsin D) [%] | Percent inhibition of Cathepsin B (cysteine) (Cathepsin B) [%] | Percent inhibition of Cathepsin H (cysteine) (Cathepsin H) [%] | Percent inhibition of Cathepsin L (cysteine) (Cathepsin L) [%] | also measured
CC(C)C[C@H](NC(=O)[C@H]1O[C@@H]1C(=O)O)C(=O)NCCCCN=C(N)N [E64] | Inhibition was noted | – | – | – | – | – | – | –
CC(C)CC(NC(=O)CCC(=O)O)C(=O)NC(Cc1ccc(O)cc1)C(=O)Nc1ccc2c(C(F)(F)F)cc(=O)oc2c1 (stereo not drawn) [Suc-Leu-Tyr-AFC] (Suc-Leu-Tyr-{AFC}; configuration not given here) | ability to inhibit | – | – | – | – | – | – | –
CC(C)C[C@H](NC(=O)OCc1ccccc1)C(=O)N[C@@H](CC(C)C)C(=O)N[C@@H](CC(C)C)C(=O)Nc1ccc2c(C(F)(F)F)cc(=O)oc2c1 [Z-LLL-AFC, Z-Leu- Leu-Leu-AFC] (Cbz-Leu-Leu-Leu-{AFC}) | – | noncleavable | 0 | 0 | 0 | 0 | 0 | –
CC(C)C[C@H](NC(=O)OCc1ccccc1)C(=O)N[C@@H](CC(C)C)C(=O)N[C@@H](Cc1ccc(O)cc1)C(=O)Nc1ccc2c(C(F)(F)F)cc(=O)oc2c1 [Z-LLY-AFC, Z-Leu-Leu-Tyr-AFC] (Cbz-Leu-Leu-Tyr-{AFC}) | – | noncleavable | 0 | 0 | 0 | 0 | 0 | –
Leu-Phe-Ketoamide-Pyridyl [K-Pyr] | – | – | – | – | – | – | – | % Prophylactic protection of BALB/c mice (Taenia crassiceps cysts [3]): 40%; Immune cells observed by SEM on cyst surfaces (Taenia crassiceps cysts [4]): None; Immune cells observed by SEM on cyst surfaces (Taenia crassiceps cysts [4]; listed as K- Pyr): neither adherent immune cells nor damaged tegunent
